Source: ChEMBL document CHEMBL3885861, “Open TG-GATES”

Organism: Rattus norvegicus
Assay: Open TG-GATES - Regimen: Single
Format: toxicity, organism-based, Sprague-Dawley
Parameters: regimen Single, gender Male, age 6 weeks
Conditions: in vivo, ip, 100 mg/kg, route intraperitoneal injection, dose level Low; for APTT / Bas / Eos / Fbg / Hb / Ht / Lym / MCH / MCHC / MCV / Mono / Neu / PT / Plat / RBC / Ret / WBC: tissue Blood; for KIDNEY_L / KIDNEY_R / KIDNEY_TOTAL: tissue Kidney; for LIVER: tissue Liver; for A/G / ALP / ALT / AST / BUN / CRE / Ca / Cl / DBIL / GLC / IP / K / LDH / Na / PL / RALB / TBIL / TC / TG / TP / gamma-GTP: tissue Plasma

N[C@H]1C(O)O[C@H](CO)[C@@H](O)[C@@H]1O (some centres not stated) [GLUCOSAMINE] gave a TERMINAL_BW (3 h) of 188.6 g, an APTT (3 h) of 16.4 s and a Bas (3 h) of 0.4%. It also gave an Eos (3 h) of 1%, a Fbg (3 h) of 267.2 mg/dL and a Hb (3 h) of 13.3 g/dL. For the same compound, the Ht (3 h) was 41.3%, the Lym (3 h) was 75% and the MCH (3 h) was 21.3 pg. It also gave an MCHC (3 h) of 32.1%, an MCV (3 h) of 66.4 fL and a Mono (3 h) of 3.2%. It also gave a Neu (3 h) of 19.6%, a PT (3 h) of 15.7 s and a Plat (3 h) of 114.1 x10_4/uL. For the same compound, the RBC (3 h) was 623.2 x10_4/ul, the Ret (3 h) was 9.9% and the WBC (3 h) was 83.2 x10_2/uL. For the same compound, the KIDNEY_L (3 h) was 0.8 g, the KIDNEY_R (3 h) was 0.8 g and the KIDNEY_TOTAL (3 h) was 1.6 g. It also gave an LIVER (3 h) of 8.3 g, an A/G (3 h) of 0.9 and an ALP (3 h) of 1288 IU/L. For the same compound, the ALT (3 h) was 42.2 IU/L, the AST (3 h) was 84.6 IU/L and the BUN (3 h) was 10.4 mg/dL. The CRE (3 h) was 0.2 mg/dL, the Ca (3 h) was 10.6 mg/dL and the Cl (3 h) was 108.4 meq/L. For the same compound, the DBIL (3 h) was 0.01 mg/dL, the GLC (3 h) was 171.6 mg/dL and the IP (3 h) was 9.2 mg/dL. It also gave a K (3 h) of 4 meq/L, an LDH (3 h) of 70 IU/L and a Na (3 h) of 143.4 meq/L. The PL (3 h) was 147.8 mg/dL, the RALB (3 h) was 2.5 g/dL and the TBIL (3 h) was 0.054 mg/dL. For the same compound, the TC (3 h) was 80.8 mg/dL, the TG (3 h) was 36.8 mg/dL and the TP (3 h) was 5.2 g/dL. For the same compound, the gamma-GTP (3 h) was 1 IU/L, the TERMINAL_BW (6 h) was 186.1 g and the APTT (6 h) was 17.1 s. The Bas (6 h) was 0%, the Eos (6 h) was 0.8% and the Fbg (6 h) was 259.4 mg/dL. For the same compound, the Hb (6 h) was 12.8 g/dL, the Ht (6 h) was 39.3% and the Lym (6 h) was 67%. The MCH (6 h) was 21.5 pg, the MCHC (6 h) was 32.7% and the MCV (6 h) was 65.9 fL. It also gave a Mono (6 h) of 3.6%, a Neu (6 h) of 27.6% and a PT (6 h) of 16.9 s. For the same compound, the Plat (6 h) was 114.6 x10_4/uL, the RBC (6 h) was 596 x10_4/ul and the Ret (6 h) was 9.9%. For the same compound, the WBC (6 h) was 82.3 x10_2/uL, the KIDNEY_L (6 h) was 0.8 g and the KIDNEY_R (6 h) was 0.8 g. The KIDNEY_TOTAL (6 h) was 1.7 g, the LIVER (6 h) was 7.7 g and the A/G (6 h) was 0.9. For the same compound, the ALP (6 h) was 1431.6 IU/L, the ALT (6 h) was 49.6 IU/L and the AST (6 h) was 94.2 IU/L. The BUN (6 h) was 8.8 mg/dL, the CRE (6 h) was 0.2 mg/dL and the Ca (6 h) was 10.1 mg/dL. For the same compound, the Cl (6 h) was 107.8 meq/L, the DBIL (6 h) was 0.006 mg/dL and the GLC (6 h) was 158 mg/dL. It also gave an IP (6 h) of 9.5 mg/dL, a K (6 h) of 3.9 meq/L and an LDH (6 h) of 58.6 IU/L. For the same compound, the Na (6 h) was 143.2 meq/L, the PL (6 h) was 144.2 mg/dL and the RALB (6 h) was 2.4 g/dL. For the same compound, the TBIL (6 h) was 0.054 mg/dL, the TC (6 h) was 80.2 mg/dL and the TG (6 h) was 40.2 mg/dL. For the same compound, the TP (6 h) was 5.1 g/dL, the gamma-GTP (6 h) was 1 IU/L and the TERMINAL_BW (9 h) was 185.8 g. It also gave an APTT (9 h) of 18.8 s, a Bas (9 h) of 0% and an Eos (9 h) of 0.8%. The Fbg (9 h) was 289.4 mg/dL, the Hb (9 h) was 12.9 g/dL and the Ht (9 h) was 39.8%. For the same compound, the Lym (9 h) was 68.4%, the MCH (9 h) was 21 pg and the MCHC (9 h) was 32.3%. It also gave an MCV (9 h) of 64.8 fL, a Mono (9 h) of 1.8% and a Neu (9 h) of 28.4%. It also gave a PT (9 h) of 16.1 s, a Plat (9 h) of 104 x10_4/uL and an RBC (9 h) of 614.4 x10_4/ul. It also gave a Ret (9 h) of 9.1%, a WBC (9 h) of 60.7 x10_2/uL and a KIDNEY_L (9 h) of 0.8 g. For the same compound, the KIDNEY_R (9 h) was 0.8 g, the KIDNEY_TOTAL (9 h) was 1.7 g and the LIVER (9 h) was 7.4 g. For the same compound, the A/G (9 h) was 0.9, the ALP (9 h) was 1454.4 IU/L and the ALT (9 h) was 39 IU/L. It also gave an AST (9 h) of 83.4 IU/L, a BUN (9 h) of 8 mg/dL and a CRE (9 h) of 0.2 mg/dL. The Ca (9 h) was 10.4 mg/dL, the Cl (9 h) was 107 meq/L and the DBIL (9 h) was 0.008 mg/dL. For the same compound, the GLC (9 h) was 180 mg/dL, the IP (9 h) was 10.4 mg/dL and the K (9 h) was 3.6 meq/L. The LDH (9 h) was 54.8 IU/L, the Na (9 h) was 144 meq/L and the PL (9 h) was 142.2 mg/dL. It also gave an RALB (9 h) of 2.5 g/dL, a TBIL (9 h) of 0.056 mg/dL and a TC (9 h) of 78.8 mg/dL. For the same compound, the TG (9 h) was 35.6 mg/dL, the TP (9 h) was 5.3 g/dL and the gamma-GTP (9 h) was 1 IU/L. The TERMINAL_BW (24 h) was 202.9 g, the APTT (24 h) was 18.1 s and the Bas (24 h) was 0.2%. For the same compound, the Eos (24 h) was 1.6%, the Fbg (24 h) was 253.2 mg/dL and the Hb (24 h) was 12.8 g/dL. For the same compound, the Ht (24 h) was 39.2%, the Lym (24 h) was 69.2% and the MCH (24 h) was 20.8 pg. It also gave an MCHC (24 h) of 32.7%, an MCV (24 h) of 63.6 fL and a Mono (24 h) of 3%. It also gave a Neu (24 h) of 25.2%, a PT (24 h) of 16.2 s and a Plat (24 h) of 105.9 x10_4/uL. For the same compound, the RBC (24 h) was 616.8 x10_4/ul, the Ret (24 h) was 8.6% and the WBC (24 h) was 93.3 x10_2/uL. It also gave a KIDNEY_L (24 h) of 0.9 g, a KIDNEY_R (24 h) of 0.9 g and a KIDNEY_TOTAL (24 h) of 1.7 g. The LIVER (24 h) was 9 g, the A/G (24 h) was 0.9 and the ALP (24 h) was 1735.2 IU/L. For the same compound, the ALT (24 h) was 51.8 IU/L, the AST (24 h) was 81.4 IU/L and the BUN (24 h) was 14.2 mg/dL. The CRE (24 h) was 0.2 mg/dL, the Ca (24 h) was 10.6 mg/dL and the Cl (24 h) was 107.4 meq/L. It also gave a DBIL (24 h) of 0.014 mg/dL, a GLC (24 h) of 181.6 mg/dL and an IP (24 h) of 8.5 mg/dL. It also gave a K (24 h) of 4.2 meq/L, an LDH (24 h) of 134.8 IU/L and a Na (24 h) of 143.8 meq/L. For the same compound, the PL (24 h) was 160.4 mg/dL, the RALB (24 h) was 2.6 g/dL and the TBIL (24 h) was 0.036 mg/dL. The TC (24 h) was 83.4 mg/dL, the TG (24 h) was 76.6 mg/dL and the TP (24 h) was 5.6 g/dL. It also gave a gamma-GTP (24 h) of 1 IU/L.
